The record followed here is patent US12150934B2 (Bantam Pharmaceutical, LLC, priority 2016, dated 2024).

The subject of the first assay is BJAB cells. Kind of assay: BJAB cell proliferation (Cell Titer Glo). The assay is classed as cell-based. Conditions: Homo sapiens, approximately 72 hours. The protocol:
Cells were seeded in white Corning Costar 96-well assay plates at 2500 cells/well in 50 μL of medium. Serial dilutions of test compounds were made in cell culture medium/FBS+0.2% DMSO, and transferred to assay plates in a volume of 50 μL (DMSO at 0.1% final). Plates were maintained at 37° C. for approximately 72 hours. The effect of compounds on cell proliferation was evaluated using the Cell Titer Glo reagent (Promega), according to the manufacturer's instructions. Briefly, 100 μL of reagent was added per well, and after a 10 minute incubation luminescence values were determined on a plate reader (Tecan F200PRO). The percent of luminescence signal relative to untreated controls was calculated for each compound concentration, and EC50 values were determined from dose response data by non-linear regression analysis using Prism (GraphPad). The mTor inhibitor Torin1 (Liu, et al. (2010) J. Med. Chem. 53, 7146) was used as a control. The data are summarized in the compound table provided above.
`Cc1nn(C)cc1-c1c(C)nn(-c2nc(-c3ccc(Cl)c(Cl)c3)c(SC(C)C)s2)c1C(=O)O` [Compound 22, 2-(4-(3,4-dichlorophenyl)-5-(isopropylthio)thiazol-2-yl)-2′,5,5′-trimethyl-4,4′-bi(2H-pyrazole)-3-carboxylic acid] showed an EC50 of 10 to 25 µM.

The molecule `CCC(C)Sc1sc(-n2nc(C)c(-c3cc(C)nc(C)c3)c2C(=O)O)nc1-c1ccc(Cl)c(Cl)c1` (centres unmarked) [Compound 33b] registered an EC50 of under 1 µM.

In turn, `CSc1sc(-n2nc(C)c(Cc3ccccc3[N+](=O)[O-])c2C(=O)O)nc1-c1ccc(Cl)c(Cl)c1` [Compound 45, 1-(4-(3,4-dichlorophenyl)-5-(methylthio)thiazol-2-yl)-3-methyl-4-(2-nitrobenzyl)-1H-pyrazole-5-carboxylic acid] registered an EC50 of 25 to 50 µM.

Molecule `Cc1nn(-c2nc(-c3cc(Cl)cc(Cl)c3)c(SC(C)C)s2)c(C(=O)O)c1-c1cc(Cl)cc(Cl)c1` [Compound 150, 4-(3,5-dichlorophenyl)-1-(4-(3,5-dichlorophenyl)-5-(isopropylthio)thiazol-2-yl)-3-methyl-1H-pyrazole-5-carboxylic acid] had an EC50 of 1 to 5 µM.

With `COCCOc1cc(Cl)cc(-c2c(C)nn(-c3nc(-c4ccc(Cl)c(Cl)c4)c(SC(C)C)s3)c2C(=O)O)c1` [Compound 175, 4-(3-chloro-5-(2-methoxyethoxy)phenyl)-1-(4-(3,4-dichlorophenyl)-5-(isopropylthio)thiazol-2-yl)-3-methyl-1H-pyrazole-5-carboxylic acid], the half-maximal effective concentration (EC50) lay in the range of 1 to 5 µM.

Regarding `Cc1nn(-c2nc(-c3cccc(F)c3)c(SC(C)C)s2)c(C(=O)O)c1-c1cccc(F)c1` [Compound 201a], the EC50 was in the range of 25 to 50 µM.

For the molecule `Cc1nn(-c2nc(-c3cc4ccccc4o3)c(SC(C)C)s2)c(C(=O)O)c1-c1cccc(F)c1` [Compound 201b], the EC50 is 10 to 25 µM.

`Cc1nn(-c2nc(-c3cncc(C#N)c3)c(SC(C)C)s2)c(C(=O)O)c1-c1cccc(F)c1` [Compound 210, 1-(4-(5-cyanopyridin-3-yl)-5-(isopropylthio)thiazol-2-yl)-4-(3-fluorophenyl)-3-methyl-1H-pyrazole-5-carboxylic acid] registered a concentration for a half-maximal effect (EC50) of over 40 µM.

Molecule `Cc1nn(-c2nc(-c3ccc(C#N)cc3)c(SC(C)C)s2)c(C(=O)O)c1-c1cccc(F)c1` [Compound 213, 1-(4-(4-cyanophenyl)-5-(isopropylthio)thiazol-2-yl)-4-(3-fluorophenyl)-3-methyl-1H-pyrazole-5-carboxylic acid] showed an EC50 of 5 to 10 µM.

`Cc1nn(-c2nc(-c3ccc(Cl)c(Cl)c3)c(F)s2)c(C(=O)O)c1-c1cccc(F)c1` [Compound 227, 1-(4-(3,4-dichlorophenyl)-5-fluorothiazol-2-yl)-4-(3-fluorophenyl)-3-methyl-1H-pyrazole-5-carboxylic acid] yielded an EC50 of 10 to 25 µM.

Molecule `CCNC(=O)c1cc(-c2nc(-n3nc(C)c(-c4cccc(F)c4)c3C(=O)O)sc2SC(C)C)ccc1Cl` [Compound 243, 1-(4-(4-chloro-3-(ethylcarbamoyl)phenyl)-5-(isopropylthio)thiazol-2-yl)-4-(3-fluorophenyl)-3-methyl-1H-pyrazole-5-carboxylic acid] had an EC50 of over 40 µM.

Still in this assay, the particulars now being: approximately 72 hours.
In the case of `Cc1nn(-c2nc(-c3ccc(Cl)c(Cl)c3)c(SC(C)C)s2)c(C(=O)O)c1-c1cccc(F)c1` [Compound 151, 1-(4-(3,4-dichlorophenyl)-5-(isopropylthio)thiazol-2-yl)-4-(3-fluorophenyl)-3-methyl-1H-pyrazole-5-carboxylic acid], the “EC50 (BJAB cell proliferation)” value is reported as “A,B”.

Another assay deals with HCT116 cells. The assay is described as follows: Effect on glutathione levels with menadione and N-acetyl cysteine. Conditions: FIG. 3. The assay is classed as cell-based. The protocol: Effect on Glutathione levels: BJAB and HCT116 cells were maintained in RPMI medium (Wisent) or McCoy's medium (Wisent), respectively. 5000 cells/well were transferred to clear-bottom 96-well assay plates (Thermo Fisher) in a volume of 50 μL. Plates were incubated overnight at 37° C. in 5% CO2, in an unsealed plastic bag with damp paper. Menadione (Sigma) was dissolved in DMSO and diluted in 10% heat inactivated FBS plus culture medium to 20 μM and 5 μM (0.2% DMSO for each). Culture medium was gently aspirated from cells and replaced by 50 μl diluted menadione or 0.2% DMSO for controls. Test compound was diluted to 80 μM (0.2% DMSO) in 10% heat inactivated FBS plus culture medium then diluted further to 5 μM, 1 μM, 0.5 μM and 0.05 μM (in 0.2% DMSO). 50 μL test compound solution was added to each well, with or without menadione. One μL of an N-acetyl cysteine (Sigma) solution at 100 mM in water was added where indicated. Assay plates were incubated for the times indicated at 37° C. 5% CO2 in opened plastic bag with damp paper. Total glutathione levels were determined according to the procedure described above.
On to `CC1=CC(=O)c2ccccc2C1=O` [menadione], for which the “Glutathione levels in HCT116 cells after treatment” value is on record as “reduction”.

Staying with this assay, now noted: presence or absence of N-acetyl cysteine, FIG. 3.
For `CC1=CC(=O)c2ccccc2C1=O` [menadione], the “Effect of N-acetyl cysteine on the reduction of glutathione” value is on record as “prevents the reduction”.
